Test results as given in patent US12581252B2, “Substituted pyrrolo[3,4-b]pyridines as PI3K-α inhibitors” (Relay Therapeutics, Inc., priority 2020, dated 2026).

These molecules were tested against H1047R PIK3CA enzyme (Homo sapiens, UniProt P42336, H1047R) (assay: ADP-Glo Biochemical PIK3CA Kinase Assay).
H1047R PIK3CA enzyme, sequence (P42336 whole entry H1047R): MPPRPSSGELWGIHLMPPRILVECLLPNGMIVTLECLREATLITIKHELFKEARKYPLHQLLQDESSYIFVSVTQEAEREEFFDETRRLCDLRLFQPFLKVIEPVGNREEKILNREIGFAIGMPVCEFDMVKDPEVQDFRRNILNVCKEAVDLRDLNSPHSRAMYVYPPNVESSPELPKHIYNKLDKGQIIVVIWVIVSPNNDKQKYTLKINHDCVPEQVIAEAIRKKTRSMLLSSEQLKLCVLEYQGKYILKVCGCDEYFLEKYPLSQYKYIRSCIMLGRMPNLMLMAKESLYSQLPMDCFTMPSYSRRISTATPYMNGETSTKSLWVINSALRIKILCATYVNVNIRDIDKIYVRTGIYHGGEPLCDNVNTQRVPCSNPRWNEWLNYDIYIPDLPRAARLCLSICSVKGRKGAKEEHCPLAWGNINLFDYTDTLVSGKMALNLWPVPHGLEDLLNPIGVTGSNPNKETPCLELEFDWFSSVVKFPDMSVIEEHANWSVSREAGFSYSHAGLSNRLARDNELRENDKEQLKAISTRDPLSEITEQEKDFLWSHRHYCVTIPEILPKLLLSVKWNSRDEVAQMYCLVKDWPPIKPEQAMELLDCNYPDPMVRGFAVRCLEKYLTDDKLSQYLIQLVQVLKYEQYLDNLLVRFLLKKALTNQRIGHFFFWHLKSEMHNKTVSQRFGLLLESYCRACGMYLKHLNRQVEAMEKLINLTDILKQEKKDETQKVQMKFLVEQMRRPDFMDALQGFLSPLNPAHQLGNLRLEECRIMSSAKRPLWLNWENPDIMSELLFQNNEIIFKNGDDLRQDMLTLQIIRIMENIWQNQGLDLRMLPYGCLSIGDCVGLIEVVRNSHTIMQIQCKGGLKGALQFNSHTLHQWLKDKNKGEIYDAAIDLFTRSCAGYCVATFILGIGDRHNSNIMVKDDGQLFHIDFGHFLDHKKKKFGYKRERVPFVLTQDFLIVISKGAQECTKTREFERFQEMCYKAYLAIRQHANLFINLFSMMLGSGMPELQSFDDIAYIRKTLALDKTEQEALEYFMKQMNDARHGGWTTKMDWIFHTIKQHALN
H1047R PIK3CA enzyme, sequence (P27986 whole entry partner): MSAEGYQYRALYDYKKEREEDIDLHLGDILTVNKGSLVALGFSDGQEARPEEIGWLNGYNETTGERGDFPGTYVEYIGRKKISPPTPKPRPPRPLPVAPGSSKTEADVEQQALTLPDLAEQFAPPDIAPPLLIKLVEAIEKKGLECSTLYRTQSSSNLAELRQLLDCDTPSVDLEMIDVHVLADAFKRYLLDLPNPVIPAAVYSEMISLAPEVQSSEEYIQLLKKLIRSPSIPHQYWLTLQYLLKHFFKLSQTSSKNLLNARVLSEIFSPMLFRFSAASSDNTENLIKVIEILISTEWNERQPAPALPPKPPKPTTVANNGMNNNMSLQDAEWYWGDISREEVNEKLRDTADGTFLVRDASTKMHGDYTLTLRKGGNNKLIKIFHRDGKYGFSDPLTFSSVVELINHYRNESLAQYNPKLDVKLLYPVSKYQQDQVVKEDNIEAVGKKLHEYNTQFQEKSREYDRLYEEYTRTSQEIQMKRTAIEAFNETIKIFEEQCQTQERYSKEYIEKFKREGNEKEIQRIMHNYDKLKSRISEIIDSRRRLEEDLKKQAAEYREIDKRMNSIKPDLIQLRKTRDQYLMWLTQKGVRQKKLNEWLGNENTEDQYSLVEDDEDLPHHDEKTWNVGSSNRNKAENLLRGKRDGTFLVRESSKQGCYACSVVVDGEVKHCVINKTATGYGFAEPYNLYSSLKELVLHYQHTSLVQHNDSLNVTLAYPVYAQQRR

Compared with `O=C(Nc1cc(-c2ccn3ncnc3c2F)cc2c1C(c1cc(F)ccc1Cl)NC2=O)c1cc(F)cc(C(F)(F)F)c1` (stereo not drawn) [Compound I-1698], `O=C(Nc1cc(-c2ccncc2F)cc2c1[C@H](c1cc(F)ccc1Cl)NC2=O)c1cc(F)cc(C(F)(F)F)c1` (stereo in doubt) [Compound I-987] is higher in IC50: at most 100 nM for the first, 1000 to 10000 nM for the second.

`N#Cc1cccc(S(=O)(=O)Cc2cc(NC(=O)c3cc(F)cc(C(F)(F)F)c3)c3c(c2)C(=O)NC3c2cc(F)ccc2Cl)c1` (stereo not drawn) [Compound I-1491] and `CS(=O)(=O)Cc1cc(NC(=O)c2cc(F)cc(C(F)(F)F)c2)c2c(c1)C(=O)NC2c1cc(F)ccc1Cl` (stereo not drawn) [Compound I-310] cannot be ordered by IC50: at most 100 nM for the first, at most 100 nM for the second.

First: O=C1N[C@@H](c2cc(F)ccc2Cl)c2c(NC(=O)N3C[C@H](O)c4cc(F)ccc43)cc(-c3cnn(C(F)F)c3)cc21 (single isomer, unassigned) [Compound I-2478]
Second: N#Cc1cnn(-c2cc(NC(=O)N3C[C@H](O)c4cc(F)ccc43)c3c(c2)C(=O)N[C@@H]3c2cc(F)ccc2Cl)c1 (single isomer, unassigned) [Compound I-2406]
The IC50 of the first is lower: 100 to 500 nM for the first, 1000 to 10000 nM for the second. The first is the more potent here.

`CS(=O)(=O)c1cc(NC(=O)c2cc(F)cc(C(F)(F)F)c2)c2c(c1)C(=O)NC2c1cc(F)ccc1Cl` (stereo not drawn) [Compound I-1276] and `CS(=O)(=O)Cc1cc(NC(=O)c2cc(F)cc(C(F)(F)F)c2)c2c(c1)C(=O)N[C@H]2c1cc(F)ccc1Cl` [Compound I-618] cannot be ordered by IC50: at most 100 nM for the first, at most 100 nM for the second.

`O=C(Nc1cc(CS(=O)(=O)N2CCOCC2)cc2c1[C@@H](c1cc(F)ccc1Cl)NC2=O)c1cc(F)cc(C(F)(F)F)c1` [Compound I-1484] and `CC1(Cc2cc(NC(=O)c3cc(F)cc(C(F)(F)F)c3)c3c(c2)C(=O)N[C@@H]3c2cc(F)ccc2Cl)COC1` [Compound I-817] fall in the same range of IC50: 1000 to 10000 nM for the first, 1000 to 10000 nM for the second.

`CC(C)(O)c1cc(NC(=O)c2nsc3ccccc23)c2c(c1)C(=O)NC2c1cc(F)ccc1Cl` (stereo not drawn) [Compound I-136] and `O=C1NC(c2cc(F)ccc2C(F)F)c2c(NC(=O)c3nsc4ccccc34)cc(Br)cc21` (stereo not drawn) [Compound I-612] cannot be ordered by IC50: at most 100 nM for the first, at most 100 nM for the second.

`O=C(Nc1cc(-c2ccc3ncnn3n2)cc2c1[C@H](c1cc(F)ccc1Cl)NC2=O)c1cc(F)cc(C(F)(F)F)c1` [Compound I-1650] and `O=C(Nc1cc(-c2ccc3nc(Cl)nn3c2)cc2c1[C@H](c1cc(F)ccc1Cl)NC2=O)c1cc(F)cc(C(F)(F)F)c1` [Compound I-1693] cannot be ordered by IC50: at most 100 nM for the first, at most 100 nM for the second.

Compared with `N#CCOc1cc(-c2ccc3ncnn3c2)cc2c1C(c1cc(F)ccc1Cl)NC2=O` (stereo not drawn) [Compound I-2022], `O=C(Nc1cc(-c2ccc3ncnn3c2)cc2c1C(c1cc(F)ccc1Cl)NC2=O)c1ccccc1` (stereo not drawn) [Compound I-1550] is lower in IC50: 10000 to 100000 nM for the first, 1000 to 10000 nM for the second. The second is the more potent here.

First: O=C(Nc1cc(Br)cc2c(=O)[nH]n(-c3cc(F)ccc3Cl)c12)c1cc(F)cc(C(F)(F)F)c1 [Compound I-752]
Second: N#CCc1cc(NC(=O)c2cc(F)cc(C(F)(F)F)c2)c2c(c1)C(=O)NC2c1cc(F)ccc1Cl (stereo not drawn) [Compound I-533]
The IC50 of the first is higher: 1000 to 10000 nM for the first, at most 100 nM for the second.

First: N[C@]1(C(F)(F)F)CN(C(=O)Nc2cccc3c2[C@H](c2cc(F)ccc2Cl)NC3=O)c2ccc(F)cc21 (single isomer, unassigned) [Compound I-2472]
Second: N#CCc1cc(NC(=O)N2C[C@@](O)(C(F)(F)F)c3cc(F)ccc32)c2c(c1)C(=O)N[C@H]2c1cc(F)ccc1Cl (single isomer, unassigned) [Compound I-2624]
The IC50 of the first is lower: 500 to 1000 nM for the first, 1000 to 10000 nM for the second.

`O=C1NC(c2cc(F)ccc2Cl)c2c(NC(=O)N3CCC4(CC4)C3)cccc21` (stereo not drawn) [Compound I-2468] and `O=C1NC(c2cc(F)ccc2Cl)c2c(NC(=O)N3c4ccccc4C(O)C34CC4)cccc21` (mixture of isomers) [Compound I-2280] fall in the same range of IC50: 10000 to 100000 nM for the first, 10000 to 100000 nM for the second.

First: O=C(Nc1cc(Br)cc2c1C(c1cc(F)ccc1Cl)NC2=O)c1cc(F)ccc1F (stereo not drawn) [Compound I-793]
Second: CC(F)c1cc(F)cc(C(=O)Nc2cc(Br)cc3c2C(c2cc(F)ccc2Cl)NC3=O)c1 (stereo not drawn) [Compound I-1288]
The IC50 of the first is higher: 1000 to 10000 nM for the first, 100 to 500 nM for the second. The second is the more potent here.

`CN1C[C@@H](Nc2cc(NC(=O)c3cc(F)cc(C(F)(F)F)c3)c3c(c2)C(=O)NC3c2cc(F)ccc2Cl)CC1=O` (single isomer, unassigned) [Compound I-375] and `O=C1C[C@H](c2cc(NC(=O)c3cc(F)cc(C(F)(F)F)c3)c3c(c2)C(=O)N[C@H]3c2cc(F)ccc2Cl)CN1` (single isomer, unassigned) [Compound I-1709] cannot be ordered by IC50: at most 100 nM for the first, at most 100 nM for the second.

`Cc1ccccc1C1NC(=O)c2cccc(NC(=O)c3n[nH]cc3-c3ccccc3)c21` (stereo not drawn) [Compound I-412] and `O=C(Nc1cccc2c1C(c1cc(F)ccc1Cl)NC2=O)c1ccccc1` (stereo not drawn) [Compound I-1681] fall in the same range of IC50: 10000 to 100000 nM for the first, 10000 to 100000 nM for the second.

First: CC(=O)c1cc(F)cc(C(=O)Nc2cccc3c2C(c2cc(F)ccc2Cl)NC3=O)c1 (stereo not drawn) [Compound I-581]
Second: CC(=O)Cc1cc(NC(=O)c2cc(F)cc(C(F)(F)F)c2)c2c(c1)C(=O)N[C@@H]2c1cc(F)ccc1Cl [Compound I-623]
The IC50 of the first is higher: 1000 to 10000 nM for the first, at most 100 nM for the second.

Compared with `O=C(Nc1cc(-c2cn3ncnc3cn2)cc2c1C(c1cc(F)ccc1Cl)NC2=O)c1cc(F)cc(Cl)c1` (stereo not drawn) [Compound I-2267], `O=C(Nc1cc(-c2cnn(-c3cscn3)c2)cc2c1C(c1cc(F)ccc1Cl)NC2=O)c1cc(F)cc(C(F)(F)F)c1` (stereo not drawn) [Compound I-1571] is lower in IC50: 1000 to 10000 nM for the first, at most 100 nM for the second.

First: O=C(Nc1cccc2c1C(C1CNC1)NC2=O)c1cc(F)cc(C(F)(F)F)c1 (stereo not drawn) [Compound I-1833]
Second: O=C(Nc1cccc2c1C(C1CCCCC1)NC2=O)c1cc(F)cc(C(F)(F)F)c1 (stereo not drawn) [Compound I-1611]
The IC50 of the first is higher: 10000 to 100000 nM for the first, 1000 to 10000 nM for the second.

`O=C1NC(c2c(F)cccc2Cl)c2c(NC(=O)c3nsc4ccccc34)cccc21` (stereo not drawn) [Compound I-99] and `O=C1NC(c2cccc(F)c2F)c2c(NC(=O)c3nsc4ccccc34)ccnc21` (stereo not drawn) [Compound I-175] fall in the same range of IC50: 500 to 1000 nM for the first, 500 to 1000 nM for the second.

First: N#Cc1cnc2c(F)cc(-c3cc(NC(=O)c4cc(F)cc(C(F)(F)F)c4)c4c(c3)C(=O)N[C@@H]4c3cc(F)ccc3Cl)cn12 [Compound I-1855]
Second: O=C(Nc1cc(-c2ccn3nc(Cl)nc3c2)cc2c1[C@@H](c1cc(F)ccc1Cl)NC2=O)c1cc(F)cc(C(F)(F)F)c1 [Compound I-1606]
The IC50 of the first is higher: 500 to 1000 nM for the first, 100 to 500 nM for the second. The second is the more potent here.

Compared with `O=C1NC(c2cc(F)ccc2Cl)c2c(NC(=O)[C@H]3C[C@@H](C(F)(F)F)C3)cc(Br)cc21` (stereo partly drawn) [Compound I-1989], `O=C(Nc1cc(Br)cc2c1C(c1cc(F)ccc1Cl)NC2=O)c1ccc[n+]([O-])c1` (stereo not drawn) [Compound I-1284] is higher in IC50: 1000 to 10000 nM for the first, 10000 to 100000 nM for the second.

`CN1CCN(c2cc(NC(=O)c3cc(F)cc(C(F)(F)F)c3)c3c(n2)C(=O)NC3c2cc(F)ccc2Cl)CC1` (stereo not drawn) [Compound I-291] and `CC(C)(O)c1cc(NC(=O)c2cc(F)cc(C(F)(F)F)c2)c2c(n1)C(=O)N[C@H]2c1cc(F)ccc1Cl` [Compound I-272] fall in the same range of IC50: 100 to 500 nM for the first, 100 to 500 nM for the second.

First: CC(C(CO)CC(=O)Nc1cccc2c1C(c1cc(F)ccc1Cl)NC2=O)C(F)(F)F (mixture of isomers) [Compound I-2197]
Second: COC(=O)c1cc(Nc2cccc3c2C(c2cc(F)ccc2Cl)NC3=O)ncc1C(F)(F)F (stereo not drawn) [Compound I-1238]
The IC50 of the first is higher: 10000 to 100000 nM for the first, 1000 to 10000 nM for the second.

First: O=C1NCc2c(NC(=O)c3csc4ccccc34)cccc21 [Compound I-3]
Second: Cc1ccccc1C1NC(=O)c2cc(CCO)cc(NC(=O)c3csc4ccccc34)c21 (stereo not drawn) [Compound I-181, N-[6-(2-Hydroxyethyl)-3-(2-methylphenyl)-1-oxo-2,3-dihydro-1H-isoindol-4-yl]-1-benzothiophene-3-carboxamide]
The IC50 of the first is higher: 10000 to 100000 nM for the first, at most 100 nM for the second.

First: O=C(Nc1cccc2c1C(CN1CCCC1)NC2=O)c1cc(F)cc(C(F)(F)F)c1 (stereo not drawn) [Compound I-1761]
Second: O=C(Nc1ccnc2c1C(c1cccc(F)c1F)NC2=O)c1cc(F)cc(C(F)(F)F)c1 (stereo not drawn) [Compound I-174]
The IC50 of the first is higher: 10000 to 100000 nM for the first, 1000 to 10000 nM for the second.

`O=C(Nc1cc(N2CCS(=O)(=O)CC2)cc2c1C(c1cc(F)ccc1Cl)NC2=O)c1cc(F)cc(C(F)(F)F)c1` (stereo not drawn) [Compound I-1248] and `C[C@H](c1cc(NC(=O)c2cc(F)cc(C(F)(F)F)c2)c2c(c1)C(=O)N[C@H]2c1cc(F)ccc1Cl)S(C)(=O)=O` (single isomer, unassigned) [Compound I-1642] cannot be ordered by IC50: at most 100 nM for the first, at most 100 nM for the second.

First: CC(C)OC(C(=O)Nc1cc(-c2ccc3ncnn3c2)cc2c1C(c1cc(F)ccc1Cl)NC2=O)c1ccccc1 (stereo not drawn) [Compound I-1662]
Second: O=C1N[C@@H](c2cc(F)ccc2Cl)c2c(NC(=O)[C@H]3CCCCN3)cc(-c3ccc4ncnn4c3)cc21 [Compound I-2147]
The IC50 of the first is lower: 1000 to 10000 nM for the first, 10000 to 100000 nM for the second. The first is the more potent here.

`Cn1ncc(Br)c1C(=O)Nc1cccc2c1C(c1cc(F)ccc1Cl)NC2=O` (stereo not drawn) [Compound I-583] and `COc1cc(C)c(C(=O)Nc2cc(Br)cc3c2C(c2cc(F)ccc2Cl)NC3=O)cn1` (stereo not drawn) [Compound I-850] fall in the same range of IC50: 10000 to 100000 nM for the first, 10000 to 100000 nM for the second.

`CS(=O)(=O)N1CCC[C@H]1COc1cc(NC(=O)c2cc(F)cc(C(F)(F)F)c2)c2c(c1)C(=O)NC2c1cc(F)ccc1Cl` (single isomer, unassigned) [Compound I-1375] and `O=C(Nc1cc(OC2CCCOC2)cc2c1C(c1cc(F)ccc1Cl)NC2=O)c1cc(F)cc(C(F)(F)F)c1` (racemic) [Compound I-1239] cannot be ordered by IC50: at most 100 nM for the first, at most 100 nM for the second.

First: O=C1NC(c2cc(F)ccc2Cl)c2c(NC(=O)C3CCC(O)CC3)cc(-c3ccc4ncnn4c3)cc21 (stereo not drawn) [Compound I-1690]
Second: C[C@]1(O)CN(C(=O)Nc2cc(Br)cc3c2C(c2cc(F)ccc2Cl)NC3=O)c2ccccc21 (single isomer, unassigned) [Compound I-1508]
The IC50 of the first is higher: 10000 to 100000 nM for the first, 1000 to 10000 nM for the second.

`O=C(Nc1cc(Br)cc2c1C(c1ccccc1C(F)F)NC2=O)c1cc(F)cc(C(F)(F)F)c1` (stereo not drawn) [Compound I-792] and `O=C(Nc1cc(Oc2ccncn2)cc2c1C(c1cc(F)ccc1Cl)NC2=O)c1cc(F)cc(C(F)(F)F)c1` (stereo not drawn) [Compound I-1052] cannot be ordered by IC50: at most 100 nM for the first, 100 to 500 nM for the second.

`CS(=O)(=O)n1cc(-c2cc(NC(=O)c3cc(F)cc(C(F)(F)F)c3)c3c(c2)C(=O)NC3c2cc(F)ccc2Cl)cn1` (stereo not drawn) [Compound I-1498] and `O=C(O)COc1ncc(-c2cc(NC(=O)c3cc(F)cc(C(F)(F)F)c3)c3c(c2)C(=O)NC3c2cc(F)ccc2Cl)cn1` (stereo not drawn) [Compound I-1390] cannot be ordered by IC50: at most 100 nM for the first, at most 100 nM for the second.

`O=C(Nc1cc(C#Cc2ccncc2)cc2c1C(c1cc(F)ccc1Cl)NC2=O)c1cc(F)cc(C(F)(F)F)c1` (stereo not drawn) [Compound I-1224] was tested, and the IC50 was at most 100 nM.
